Like-named read-outs stand apart in the source and are kept apart here.
How the values were obtained:
[1] = Solubility of tacrolimus in vehicles (shaken, filtered, HPLC); format: physicochemical
Protocol: The solubility of tacrolimus was obtained in Maisine® 35-1, sesame oil, Miglyol® 812, Caspmul MCM EP, Labrafil M 2125 CS, peceol, Capryol 90, Lauroglycol FCC, Span 80, caprylic acid, Transcutol HP, Tween 80 (polysorbate 80), Kolliphor EL (Cremophor EL), labrasol, Vitamin E TPGS, PEG 400, propylene glycol, ethanol, Phosal 50 PG, triethylcitrate, and PEG 3350. In general, tacrolimus (˜15 mg) was added to approximately 250 mg of the vehicles. After the first addition of the API, the mixtures were shaken in a temperature-controlled vortex mixer for 24 hours at 25° C. (50° C. for Vitamin E TPGS and 60° C. for PEG 3350) then examined for solid residues. If no residue was observed, further addition of API was performed until the total API added was ˜55 mg. After the final addition, samples were further shaken at temperature for at least 24 h. After the incubation, each sample was examined visually for solid residues. Suspensions were filtered using a centrifuge tube with 0.45 μm PVDF membrane filter (Millipore Durapore®). The thick filtrate was weighed in to a 5-mL volumetric flask and diluted to mark with the HPLC diluent. Biphasic mixtures were vialed, spun on a centrifuge, and the clear solution was separated from the oily phase. All samples were prepared protected from light.

[2] = cited from earlier work
[3] = cited from earlier work; remark: listed apart in the source

solubility ([1]; in Capryol 90, 25° C.): > 56 mg of API per gram of solvent
solubility ([1]; in Caspmul MCM EP, 25° C.): > 56 mg of API per gram of solvent
solubility ([1]; in PEG 400, 25° C.): > 56 mg of API per gram of solvent
solubility ([1]; in PEG 3350, 60° C.): > 56 mg of API per gram of solvent
solubility ([1]; in Phosal 50 PG, 25° C.): > 56 mg of API per gram of solvent
solubility ([1]; in Vitamin E TPGS, 50° C.): > 56 mg of API per gram of solvent
solubility ([1]; in caprylic acid, 25° C.): > 56 mg of API per gram of solvent
solubility ([1]; in ethanol, 25° C.): > 56 mg of API per gram of solvent
solubility ([1]; in labrasol, 25° C.): > 56 mg of API per gram of solvent
solubility ([1]; in propylene glycol, 25° C.): > 56 mg of API per gram of solvent
solubility ([1]; in triethylcitrate, 25° C.): > 56 mg of API per gram of solvent
SMILES: C=CC[C@@H]1/C=C(\C)C[C@H](C)C[C@H](OC)[C@H]2O[C@@](O)(C(=O)C(=O)N3CCCC[C@H]3C(=O)O[C@H](/C(C)=C/[C@@H]3CC[C@@H](O)[C@H](OC)C3)[C@H](C)[C@@H](O)CC1=O)[C@H](C)C[C@@H]2OC (relative stereo) [Tacrolimus, [3S-[3R*[E(1S*,3S*,4S*)], 4S*,5R*,8S*,9E,12R*,14R*,15S*,16R*,18S*, 19S*,26-aR*]]-5,6,8,11,12,13,14,15,16,17,18,19,24,25,26a-hexadecahydro-5,19-dihydroxy-3-[2-(4-hydroxy-3-methoxycyclohexyl)-1-methylethenyl]-14,16-dimethoxy-4,10,12,18-tetramethyl-8-(2-propenyl)-15,19-epoxy-3H-pyrido [2,1-c][1,4]oxazacyclotricosine-1,7,20,21 (4H,23H)-tetrone, monohydrate]
solubility ([2]; in chloroform): very soluble
solubility ([2]; in ethanol): freely soluble
solubility ([2]; in methanol): very soluble
solubility ([2]; in water): practically insoluble
time to peak concentration ([3]; after oral administration): 0.5 to 4 h
volume of distribution (VolD) based on plasma ([3]; based on plasma): 5 to 65 L/kg of body weight
half-life for distribution ([3]; in vivo): 54 min
protein binding ([3]; in vivo): 75 to 99%
whole blood concentrations relative to plasma concentrations ([3]; in vivo): 12 to 67 times
bioavailability of the oral dosage form (range) ([3]; oral): 5 to 65%
mean bioavailability of the oral dosage form ([3]; oral): about 27%

Source: US20260021051A1, “PHARMACEUTICAL FORMULATIONS” (VIVUS LLC, priority 2015, published 2026)
